Data set [1] has as its target T1, Human Neuropeptide Y2 Receptor (Homo sapiens, UniProt P49146).
T1 construct: purchased CHEMICON HTS066M
T1 sequence (P49146 1-381): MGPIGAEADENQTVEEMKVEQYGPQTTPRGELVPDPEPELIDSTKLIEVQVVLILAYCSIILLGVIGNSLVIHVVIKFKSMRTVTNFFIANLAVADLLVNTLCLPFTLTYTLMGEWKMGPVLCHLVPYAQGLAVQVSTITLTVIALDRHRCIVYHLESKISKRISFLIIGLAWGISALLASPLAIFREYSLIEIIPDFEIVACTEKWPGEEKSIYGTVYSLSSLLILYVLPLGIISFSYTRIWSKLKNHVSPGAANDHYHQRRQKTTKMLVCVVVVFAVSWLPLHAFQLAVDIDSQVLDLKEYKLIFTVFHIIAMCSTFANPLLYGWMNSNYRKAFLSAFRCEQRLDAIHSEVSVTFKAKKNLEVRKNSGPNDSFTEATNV
Briefly: Radioligand binding competition assay (RLB). Particulars: Table 3, 125I-PYY(1-36) competition; read-out: Ki. The method, boiled down:
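Competition binding used membranes expressing the receptor (0.5 μg protein/well) in 50 mM HEPES, 5 mM MgCl2, 1 mM CaCl2, pH 7.4 with 0.2% ovalbumin, incubated 2 h at room temperature with shaking. Bound radioligand was collected by filtration onto PEI-soaked GF/C filters and counted; IC50 from nonlinear sigmoidal fits.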

Another data set in a line: Solubility determination. Particulars: for Sol6: pH 6; for Sol7: pH 7. The method in brief:
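Solubility is derived from the ratio of reversed-phase peak areas, filtered sample over a control dissolved at 1 mg/ml in 50% acetonitrile. Peptides are agitated for 2 hours at room temperature in 0.1 M sodium diphosphate at pH 6.4 or 7.0, aiming at 10 mg/ml.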

*1 amine or outer side, *2 acyl side, *3 side chain or, on linkers, in order; H or OH if unused. Where a SMILES comes first, the peptide text is derived from it. Side-chain parts run from the residue outwards. The star is where a group is joined. C18 diacid = O=C(O)CCCCCCCCCCCCCCCCC(=O)*; γGlu = O=C(O)[C@H](CCC(=O)[*:2])N[*:1]; Isovaleryl = CC(C)CC(=O)*; Ahx = NCCCCCC(=O)O Where only a bound is given, the exact number is not on record here.

Consider `CC[C@H](C)[C@H](NC(=O)[C@H](CCC(=O)O)NC(=O)[C@H](CCC(=O)O)NC(=O)[C@@H]1CCCN1C(=O)[C@@H](NC(=O)[C@H](C)NC(=O)[C@H](C)NC(=O)[C@H](C)NC(=O)[C@H](CCC(=O)O)NC(=O)[C@@H]1CCCN1C(=O)[C@H](CCCCNC(=O)CCCCCNC(=O)CC[C@H](NC(=O)CCCCCCCCCCCCCCCCC(=O)O)C(=O)O)NC(=O)[C@H](CCC(=O)O)NC(=O)[C@@H]1CCCN1C(=O)[C@H](C)NC(=O)CC(C)C)[C@@H](C)O)C(=O)N[C@@H](CCC(N)=O)C(=O)N[C@@H](CCCNC(=N)N)C(=O)N[C@@H](Cc1ccc(O)cc1)C(=O)N[C@@H](Cc1ccc(O)cc1)C(=O)N[C@H](C(=O)N[C@@H](C)C(=O)N[C@@H](CC(C)C)C(=O)N[C@@H](CCCNC(=N)N)C(=O)N[C@@H](Cc1c[nH]cn1)C(=O)N[C@@H](Cc1ccc(O)cc1)C(=O)N[C@@H](Cc1ccc(O)cc1)C(=O)N[C@@H](CC(N)=O)C(=O)N[C@@H](Cc1c[nH]c2ccccc12)C(=O)N[C@@H](CC(C)C)C(=O)N[C@H](C(=O)N[C@@H](CCCNC(=N)N)C(=O)N[C@@H](CCC(N)=O)C(=O)N[C@@H](CCCNC(=N)N)C(=O)N[C@@H](Cc1ccc(O)cc1)C(N)=O)[C@@H](C)O)C(C)C` [Compound 178, N{alpha-4}-(3-methylbutanoyl)-N{epsilon-7}-(6-[(4S)-4-carboxy-4-(17-carboxyheptadecanamido)butanamido]hexanoyl)-[4A,7K,9E,10A,11A,13T,17I,18Q,22V,23A,28Y,30W,31L]-hPYY(4-36)], for which the inhibition constant Ki (in general, a measure of affinity in units of concentration, obtained from inhibition or displacement) in data set [1] is 3.39 nM. Also, in the data set “Solubility determination”, the “Sol6” value turned out to be 0.0 mg/mL and the “Sol7” value worked out at 0.4 mg/mL.
As to `CC(C)CC(=O)N[C@@H](C)C(=O)N1CCC[C@H]1C(=O)N[C@@H](CCC(=O)O)C(=O)N[C@@H](CCCCNC(=O)CCCCCNC(=O)CC[C@H](NC(=O)CCCCCCCCCCCCCCCCC(=O)O)C(=O)O)C(=O)N1CCC[C@H]1C(=O)N[C@@H](CCC(=O)O)C(=O)N[C@@H](CCC(=O)O)C(=O)N[C@@H](C)C(=O)N[C@@H](C)C(=O)N[C@@H](CO)C(=O)N1CCC[C@H]1C(=O)N[C@@H](CCC(=O)O)C(=O)N[C@@H](CCC(=O)O)C(=O)N[C@@H](CC(C)C)C(=O)N[C@@H](CCC(N)=O)C(=O)N[C@@H](CCCNC(=N)N)C(=O)N[C@@H](Cc1ccc(O)cc1)C(=O)N[C@@H](Cc1ccc(O)cc1)C(=O)N[C@H](C(=O)N[C@@H](C)C(=O)N[C@@H](CC(C)C)C(=O)N[C@@H](CCCNC(=N)N)C(=O)N[C@@H](Cc1c[nH]cn1)C(=O)N[C@@H](Cc1ccc(O)cc1)C(=O)N[C@@H](Cc1ccc(O)cc1)C(=O)N[C@@H](CC(N)=O)C(=O)N[C@@H](Cc1c[nH]c2ccccc12)C(=O)N[C@@H](CC(C)C)C(=O)N[C@H](C(=O)N[C@@H](CCCNC(=N)N)C(=O)N[C@@H](CCC(N)=O)C(=O)N[C@@H](CCCNC(=N)N)C(=O)N[C@@H](Cc1ccc(O)cc1)C(N)=O)[C@@H](C)O)C(C)C` [Compound 73, N{alpha-4}-(3-methylbutanoyl)-N{epsilon-7}-(6-[(4S)-4-carboxy-4-(17-carboxyheptadecanamido)butanamido]hexanoyl)-[4A,7K,9E,11A,18Q,22V,23A,28Y,30W,31L]-hPYY(4-36)], in data set [1], the Ki turned out to be 2.16 nM. Besides, in the data set “Solubility determination”, the “Sol6” value came out at 8.6 mg/mL and the “Sol7” value turned out to be 8.2 mg/mL.
On to `CC(C)CC(=O)N[C@@H](C)C(=O)N1CCC[C@H]1C(=O)N[C@@H](CCC(=O)O)C(=O)N[C@@H](CCCCNC(=O)CCCCCNC(=O)CC[C@H](NC(=O)CCCCCCCCCCCCCCCCC(=O)O)C(=O)O)C(=O)N1CCC[C@H]1C(=O)N1CCC[C@H]1C(=O)N[C@@H](C)C(=O)N[C@@H](CC(=O)O)C(=O)N[C@@H](C)C(=O)N[C@H](C(=O)N1CCC[C@H]1C(=O)N[C@@H](CCC(=O)O)C(=O)N[C@@H](CCC(=O)O)C(=O)N[C@@H](CC(C)C)C(=O)N[C@@H](CCC(N)=O)C(=O)N[C@@H](CCCNC(=N)N)C(=O)N[C@@H](Cc1ccc(O)cc1)C(=O)N[C@@H](Cc1ccc(O)cc1)C(=O)N[C@H](C(=O)N[C@@H](CO)C(=O)N[C@@H](CC(C)C)C(=O)N[C@@H](CCCNC(=N)N)C(=O)N[C@@H](Cc1c[nH]cn1)C(=O)N[C@@H](Cc1ccc(O)cc1)C(=O)N[C@@H](Cc1ccc(O)cc1)C(=O)N[C@@H](CC(N)=O)C(=O)N[C@@H](Cc1c[nH]c2ccccc12)C(=O)N[C@@H](CC(C)C)C(=O)N[C@H](C(=O)N[C@@H](CCCNC(=N)N)C(=O)N[C@@H](CCC(N)=O)C(=O)N[C@@H](CCCNC(=N)N)C(=O)N[C@@H](Cc1ccc(O)cc1)C(N)=O)[C@@H](C)O)C(C)C)[C@@H](C)O` [Compound 30, N{alpha-4}-(3-methylbutanoyl)-N{epsilon-7}-(6-[(4S)-4-carboxy-4-(17-carboxyheptadecanamido)butanamido]hexanoyl)[4A,7K,9P,10A,13T,18Q,22V,28Y,30W,31L]-hPYY(4-36)] (Isovaleryl-APEK([Ahx-γGlu-C18 diacid])PPADATPEELQRYYVSLRHYYNWLTRQRY-NH2), for which the Ki in data set [1] is 0.3 nM. In “Solubility determination”, the “Sol6” value is 0.1 mg/mL and the “Sol7” value was determined as 9.4 mg/mL.
The matching figures for `CC(C)CC(=O)N[C@@H](C)C(=O)N1CCC[C@H]1C(=O)N[C@@H](CCC(=O)O)C(=O)N[C@@H](CCCCNC(=O)CCCCCNC(=O)CC[C@H](NC(=O)CCCCCCCCCCCCCCCCC(=O)O)C(=O)O)C(=O)N1CCC[C@H]1C(=O)N[C@@H](CCC(=O)O)C(=O)N[C@@H](CCC(=O)O)C(=O)N[C@@H](CC(=O)O)C(=O)N[C@@H](C)C(=O)N[C@H](C(=O)N1CCC[C@H]1C(=O)N[C@@H](CCC(=O)O)C(=O)N[C@@H](CCC(=O)O)C(=O)N[C@@H](CC(C)C)C(=O)N[C@@H](CCC(N)=O)C(=O)N[C@@H](CCCNC(=N)N)C(=O)N[C@@H](Cc1ccc(O)cc1)C(=O)N[C@@H](Cc1ccc(O)cc1)C(=O)N[C@H](C(=O)N[C@@H](CO)C(=O)N[C@@H](CC(C)C)C(=O)N[C@@H](CCCNC(=N)N)C(=O)N[C@@H](Cc1c[nH]cn1)C(=O)N[C@@H](Cc1ccc(O)cc1)C(=O)N[C@@H](Cc1ccc(O)cc1)C(=O)N[C@@H](CC(N)=O)C(=O)N[C@@H](Cc1c[nH]c2ccccc12)C(=O)N[C@@H](CC(C)C)C(=O)N[C@@H](CO)C(=O)N[C@@H](CCCNC(=N)N)C(=O)N[C@@H](CCC(N)=O)C(=O)N[C@@H](CCCNC(=N)N)C(=O)N[C@@H](Cc1ccc(O)cc1)C(N)=O)C(C)C)[C@@H](C)O` [Compound 155, N{alpha-4}-(3-methylbutanoyl)-N{epsilon-7}-(6-[(4S)-4-carboxy-4-(17-carboxyheptadecanamido)butanamido]hexanoyl)-[4A,7K,9E,13T,18Q,22V,28Y,30W,31L,32S]-hPYY(4-36)]: 7.6 nM, above 10.0 mg/mL and above 10.0 mg/mL.
The matching figures for `CC(C)CC(=O)N[C@@H](C)C(=O)N1CCC[C@H]1C(=O)N[C@@H](CCC(=O)O)C(=O)N[C@@H](CCCCNC(=O)CCCCCNC(=O)CC[C@H](NC(=O)CCCCCCCCCCCCCCCCC(=O)O)C(=O)O)C(=O)N1CCC[C@H]1C(=O)N[C@@H](CCC(=O)O)C(=O)N[C@@H](CCC(=O)O)C(=O)N[C@@H](CC(=O)O)C(=O)N[C@@H](C)C(=O)N[C@H](C(=O)N1CCC[C@H]1C(=O)N[C@@H](CCC(=O)O)C(=O)N[C@@H](CCC(=O)O)C(=O)N[C@@H](CC(C)C)C(=O)N[C@@H](CCC(N)=O)C(=O)N[C@@H](CCCNC(=N)N)C(=O)N[C@@H](Cc1ccc(O)cc1)C(=O)N[C@@H](Cc1ccc(O)cc1)C(=O)N[C@H](C(=O)N[C@@H](CC(C)C)C(=O)N[C@@H](CC(C)C)C(=O)N[C@@H](CCCNC(=N)N)C(=O)N[C@@H](Cc1c[nH]cn1)C(=O)N[C@@H](Cc1ccc(O)cc1)C(=O)N[C@@H](Cc1ccc(O)cc1)C(=O)N[C@@H](CC(N)=O)C(=O)N[C@@H](Cc1c[nH]c2ccccc12)C(=O)N[C@@H](CC(C)C)C(=O)N[C@H](C(=O)N[C@@H](CCCNC(=N)N)C(=O)N[C@@H](CCC(N)=O)C(=O)N[C@@H](CCCNC(=N)N)C(=O)N[C@@H](Cc1ccc(O)cc1)C(N)=O)[C@@H](C)O)C(C)C)[C@@H](C)O` [Compound 49, N{alpha-4}-(3-methylbutanoyl)-N{epsilon-7}-(6-[(4S)-4-carboxy-4-(17-carboxyheptadecanamido)butanamido]hexanoyl)-[4A,7K,9E,13T,18Q,22V,23L,28Y,30W,31L]-hPYY(4-36)]: 11.6 nM, above 10.0 mg/mL and above 10.0 mg/mL.

The values are drawn from US12391737B2, “Soluble NPY2 receptor agonists” (Boehringer Ingelheim International GmbH, priority 2020, dated 2025).
